In the assay the test system is CD2F1 mice, L1210 leukemia ip, survival T/C. Nature of the assay: NCI In Vivo Anticancer Drug Screen. Data for tumor model L1210 Leukemia (intraperitoneal) in CD2F1 (CDF1) mice. The conditions noted are these: higher = longer survival. Summed up: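 Mice carrying a transplanted tumor received test compound or vehicle alone. The value is the measurement in the treated group divided by that in the vehicle-treated control group.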

Where [1] appears, read: endpoint: median survival time, dose: 6.25 mg/kg/injection, schedule: Q01DX009 (ip), vehicle: saline with Tween-80.
Where [2] appears, read: endpoint: median survival time, dose: 12.5 mg/kg/injection, schedule: Q01DX009 (ip), vehicle: saline with Tween-80.
The mark [3] stands for this setting: endpoint: median survival time, dose: 25.0 mg/kg/injection, schedule: Q01DX009 (ip), vehicle: saline with Tween-80.
[4] abbreviates: endpoint: mean survival time, dose: 100.0 mg/kg/injection, schedule: Q04DX003 (ip), vehicle: saline with Tween-80.
The mark [5] stands for this setting: endpoint: mean survival time, dose: 200.0 mg/kg/injection, schedule: Q04DX003 (ip), vehicle: saline with Tween-80.
Setting [6] is: endpoint: mean survival time, dose: 400.0 mg/kg/injection, schedule: Q04DX003 (ip), vehicle: saline with Tween-80.
The mark [7] stands for this setting: endpoint: mean survival time, dose: 100.0 mg/kg/injection, schedule: Q01DX009 (ip), vehicle: saline with Tween-80.
[8] abbreviates: endpoint: mean survival time, dose: 200.0 mg/kg/injection, schedule: Q01DX009 (ip), vehicle: saline with Tween-80.

Values joined by “and” are separate entries in the source; they are usually repeats but may differ in a detail not shown here. Identical values can stand only once. Inconclusive results and toxic doses are left out.

On to `CC(C)(C)N1CC1CNC(=O)C(=O)NCC1CN1C(C)(C)C` (stereo unspecified), for which the T/C (endpoint: mean survival time, dose: 0.78 mg/kg/injection, schedule: Q01DX009 (ip), vehicle: saline with Tween-80) is 100 % of control and 102 % of control; the T/C (endpoint: mean survival time, dose: 1.56 mg/kg/injection, schedule: Q01DX009 (ip), vehicle: saline with Tween-80) was 103 % of control and 105 % of control; the T/C (endpoint: mean survival time, dose: 3.12 mg/kg/injection, schedule: Q01DX009 (ip), vehicle: saline with Tween-80) was 114 % of control and 108 % of control; the T/C (endpoint: mean survival time, dose: 12.5 mg/kg/injection, schedule: Q01DX009 (ip), vehicle: saline with Tween-80) is 171 % of control and 201 % of control; the T/C (endpoint: mean survival time, dose: 12.5 mg/kg/injection, schedule: Q01DX009 (oral), vehicle: saline with Tween-80) is 150 % of control; the T/C (endpoint: median survival time, dose: 3.13 mg/kg/injection, schedule: Q01DX009 (ip), vehicle: saline with Tween-80) is 117 % of control. Moreover, the T/C was 158 % of control and 171 % of control under setting [1]; 273 % of control and 275 % of control under setting [2]; 117 % of control and 98 % of control under setting [3].

With `CS(=O)(=O)c1ccc(NN)c([N+](=O)[O-])c1`, the T/C is 98 % of control under setting [4], 98 % of control under setting [5] and 102 % of control under setting [6].

For `COc1ccc2c(ccc3oc([N+](=O)[O-])cc32)c1`, the T/C under setting [1] was 105 % of control; the T/C under setting [2] was 105 % of control; the T/C under setting [3] was 105 % of control; the T/C (endpoint: median survival time, dose: 50.0 mg/kg/injection, schedule: Q01DX009 (ip), vehicle: saline with Tween-80) was 105 % of control; the T/C (endpoint: median survival time, dose: 100.0 mg/kg/injection, schedule: Q01DX009 (ip), vehicle: saline with Tween-80) is 107 % of control; the T/C (endpoint: median survival time, dose: 200.0 mg/kg/injection, schedule: Q01DX009 (ip), vehicle: saline with Tween-80) is 92 % of control.

Take `O=C1NC(=O)c2c(O)ccc(O)c21`: the T/C runs as follows: (endpoint: mean survival time, dose: 100.0 mg/kg/injection, schedule: Q01DX001 (ip), vehicle: Klucel (hydroxypropylcellulose) (HPC)) 114 % of control; (endpoint: mean survival time, dose: 200.0 mg/kg/injection, schedule: Q01DX001 (ip), vehicle: Klucel (hydroxypropylcellulose) (HPC)) 91 % of control; (endpoint: mean survival time, dose: 400.0 mg/kg/injection, schedule: Q01DX001 (ip), vehicle: Klucel (hydroxypropylcellulose) (HPC)) 95 % of control.

On to `NNc1c(F)c(F)c2c(F)c(F)c(F)c(F)c2c1F`, for which the T/C was 97 % of control (endpoint: mean survival time, dose: 25.0 mg/kg/injection, schedule: Q01DX001 (ip), vehicle: saline with Tween-80); 96 % of control (endpoint: mean survival time, dose: 50.0 mg/kg/injection, schedule: Q01DX001 (ip), vehicle: saline with Tween-80); 88 % of control (endpoint: mean survival time, dose: 100.0 mg/kg/injection, schedule: Q01DX001 (ip), vehicle: saline with Tween-80).

Take `CCCCOc1c(OCCCC)c(=O)c1=O`: the T/C (endpoint: mean survival time, dose: 100.0 mg/kg/injection, schedule: Q01DX001 (ip), vehicle: saline) was 108 % of control; the T/C (endpoint: mean survival time, dose: 178.0 mg/kg/injection, schedule: Q01DX001 (ip), vehicle: saline) is 102 % of control; the T/C (endpoint: mean survival time, dose: 200.0 mg/kg/injection, schedule: Q01DX001 (ip), vehicle: saline) was 108 % of control; the T/C (endpoint: mean survival time, dose: 267.0 mg/kg/injection, schedule: Q01DX001 (ip), vehicle: saline) was 96 % of control; the T/C (endpoint: mean survival time, dose: 400.0 mg/kg/injection, schedule: Q01DX001 (ip), vehicle: saline) is 106 % of control; the T/C (endpoint: mean survival time, dose: 600.0 mg/kg/injection, schedule: Q01DX001 (ip), vehicle: saline) was 98 % of control.

In the case of `C=CCOCCC#N`, the T/C under setting [7] was 95 % of control.

Regarding `CCCCc1ccc(N=Cc2ccc(C=Nc3ccc(CCCC)cc3)cc2)cc1`, the T/C under setting [4] is 94 % of control, the T/C under setting [5] is 89 % of control and the T/C under setting [6] is 89 % of control.

`COc1cccc(C(=O)c2ccccc2NC(C)=O)c1`: the T/C was 101 % of control under setting [7]; 103 % of control under setting [8]; 98 % of control (endpoint: mean survival time, dose: 400.0 mg/kg/injection, schedule: Q01DX009 (ip), vehicle: saline with Tween-80).

Regarding `COc1cc2c(c(OC)c1OC)-c1ccc(OC)c(=O)cc1[C@@H](NC(C)=O)CC2`, the T/C reads like this: (endpoint: mean survival time, dose: 0.02 mg/kg/injection, schedule: Q01DX009 (ip), vehicle: saline) 117 % of control; (endpoint: mean survival time, dose: 0.03 mg/kg/injection, schedule: Q01DX009 (ip), vehicle: water) 93 % of control; (endpoint: mean survival time, dose: 0.04 mg/kg/injection, schedule: Q01DX009 (ip), vehicle: saline) 103 % of control; (endpoint: mean survival time, dose: 0.05 mg/kg/injection, schedule: Q01DX009 (ip), vehicle: saline) 102 % of control; (endpoint: mean survival time, dose: 0.06 mg/kg/injection, schedule: Q01DX005 (ip), vehicle: Klucel (hydroxypropylcellulose) (HPC)) 103 % of control; (endpoint: mean survival time, dose: 0.08 mg/kg/injection, schedule: Q01DX009 (ip), vehicle: saline) 105 % of control. Also, the T/C was 100 % of control (endpoint: mean survival time, dose: 0.1 mg/kg/injection, schedule: Q01DX009 (ip), vehicle: saline); 97 % of control (endpoint: mean survival time, dose: 0.13 mg/kg/injection, schedule: Q01DX005 (ip), vehicle: Klucel (hydroxypropylcellulose) (HPC)); 117 % of control (endpoint: mean survival time, dose: 0.13 mg/kg/injection, schedule: Q01DX005 (ip), vehicle: water); 111 % of control (endpoint: mean survival time, dose: 0.16 mg/kg/injection, schedule: Q01DX009 (ip), vehicle: saline); 104 % of control (endpoint: mean survival time, dose: 0.19 mg/kg/injection, schedule: Q01DX009 (ip), vehicle: saline); 114 % of control (endpoint: mean survival time, dose: 0.25 mg/kg/injection, schedule: Q01DX005 (ip), vehicle: Klucel (hydroxypropylcellulose) (HPC)). For the same compound, the T/C by setting is: (endpoint: mean survival time, dose: 0.25 mg/kg/injection, schedule: Q01DX005 (ip), vehicle: water) 122 % of control; (endpoint: mean survival time, dose: 0.35 mg/kg/injection, schedule: Q04DX004 (ip), vehicle: saline) 111 % of control; (endpoint: mean survival time, dose: 0.38 mg/kg/injection, schedule: Q01DX009 (ip), vehicle: saline) 111 % of control; (endpoint: mean survival time, dose: 0.5 mg/kg/injection, schedule: Q01DX005 (ip), vehicle: Klucel (hydroxypropylcellulose) (HPC)) 123 % of control; (endpoint: mean survival time, dose: 0.54 mg/kg/injection, schedule: Q04DX004 (ip), vehicle: saline) 112 % of control; (endpoint: mean survival time, dose: 0.75 mg/kg/injection, schedule: Q01DX009 (ip), vehicle: saline) 118 % of control and 111 % of control. The T/C by setting is: (endpoint: mean survival time, dose: 0.8 mg/kg/injection, schedule: Q04DX004 (ip), vehicle: saline) 115 % of control; (endpoint: mean survival time, dose: 1.2 mg/kg/injection, schedule: Q04DX004 (ip), vehicle: saline) 122 % of control; (endpoint: median survival time, dose: 0.02 mg/kg/injection, schedule: Q01DX009 (ip), vehicle: saline) 88 % of control and 100 % of control; (endpoint: median survival time, dose: 0.04 mg/kg/injection, schedule: Q01DX009 (ip), vehicle: saline) 100 % of control; (endpoint: median survival time, dose: 0.08 mg/kg/injection, schedule: Q01DX009 (ip), vehicle: saline) 100 % of control and 105 % of control; (endpoint: median survival time, dose: 0.13 mg/kg/injection, schedule: Q01DX005 (ip), vehicle: saline) 111 % of control. The T/C is 114 % of control and 111 % of control (endpoint: median survival time, dose: 0.16 mg/kg/injection, schedule: Q01DX009 (ip), vehicle: saline); 123 % of control (endpoint: median survival time, dose: 0.25 mg/kg/injection, schedule: Q01DX005 (ip), vehicle: saline); 164 % of control (endpoint: median survival time, dose: 1.0 mg/kg/injection, schedule: Q01DX005 (ip), vehicle: saline); 111 % of control (endpoint: median survival time, dose: 2.0 mg/kg/injection, schedule: Q01DX005 (ip), vehicle: saline).

In the case of `C=CCN(CC=C)CCSC(=S)NCCOC`, the T/C is 97 % of control (endpoint: mean survival time, dose: 50.0 mg/kg/injection, schedule: Q01DX009 (ip), vehicle: saline with Tween-80); 113 % of control under setting [7]; 97 % of control under setting [8].

Consider `Cn1cccc1-c1cccnc1`, for which the T/C is 97 % of control (endpoint: mean survival time, dose: 75.0 mg/kg/injection, schedule: Q01DX001 (ip), vehicle: saline) and 100 % of control (endpoint: mean survival time, dose: 150.0 mg/kg/injection, schedule: Q01DX001 (ip), vehicle: saline).

Consider `CCC1(CCC#N)CCC(N)=CC1=O` (stereo unspecified), for which the T/C was 104 % of control under setting [4], 95 % of control under setting [5] and 101 % of control under setting [6].

As to `COc1ccc2c(Br)cccc2c1`, the T/C is 102 % of control (endpoint: mean survival time, dose: 100.0 mg/kg/injection, schedule: Q04DX003 (ip), vehicle: acetone); 94 % of control (endpoint: mean survival time, dose: 200.0 mg/kg/injection, schedule: Q04DX003 (ip), vehicle: acetone); 92 % of control (endpoint: mean survival time, dose: 400.0 mg/kg/injection, schedule: Q04DX003 (ip), vehicle: acetone).

The values above are taken from PubChem BioAssay AID256 (DTP/NCI, 2004).
